Assays:
HePTP = target: T1, HePTP (Homo sapiens, UniProt P35236); test: Selectivity pNPP assay, full-length PTPs: HePTP; type: biochemical; conditions: full-length PTP, 10 nM, 500 µM pNPP
T1 construct: Full-length HePTP and PTP-SL proteins were purchased from Abnova; purchased Abnova (Taipei, Taiwan)
T1 sequence (P35236 1-360): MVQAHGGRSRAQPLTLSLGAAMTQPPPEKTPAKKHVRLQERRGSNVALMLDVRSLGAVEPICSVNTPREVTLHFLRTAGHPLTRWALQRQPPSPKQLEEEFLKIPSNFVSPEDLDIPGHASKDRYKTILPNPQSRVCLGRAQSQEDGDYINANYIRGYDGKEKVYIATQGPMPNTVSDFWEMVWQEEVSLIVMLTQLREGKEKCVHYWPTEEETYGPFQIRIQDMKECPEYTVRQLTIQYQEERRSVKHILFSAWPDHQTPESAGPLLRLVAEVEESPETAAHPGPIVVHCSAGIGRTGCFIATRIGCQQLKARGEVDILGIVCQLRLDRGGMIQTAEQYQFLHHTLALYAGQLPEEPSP
Excerpt: Constructs were transformed into BL21 (DE3) E. coli cells. Fusion proteins were purified on a glutathione sepharose column.

[1] = tested on: ERK1/2 (Y204/187) and Pyk2 (Y402); test: Tyr phosphorylation of ERK1/2 and Pyk2 in different organs of WT and STEP KO mice; type: in vivo, mouse
STEP = target: T2, STEP (Mus musculus, UniProt P54830); test: Dialysis of TC-2153-inhibited STEP; type: biochemical; conditions: after 24 h of dialysis
T2 sequence (P54830 1-541): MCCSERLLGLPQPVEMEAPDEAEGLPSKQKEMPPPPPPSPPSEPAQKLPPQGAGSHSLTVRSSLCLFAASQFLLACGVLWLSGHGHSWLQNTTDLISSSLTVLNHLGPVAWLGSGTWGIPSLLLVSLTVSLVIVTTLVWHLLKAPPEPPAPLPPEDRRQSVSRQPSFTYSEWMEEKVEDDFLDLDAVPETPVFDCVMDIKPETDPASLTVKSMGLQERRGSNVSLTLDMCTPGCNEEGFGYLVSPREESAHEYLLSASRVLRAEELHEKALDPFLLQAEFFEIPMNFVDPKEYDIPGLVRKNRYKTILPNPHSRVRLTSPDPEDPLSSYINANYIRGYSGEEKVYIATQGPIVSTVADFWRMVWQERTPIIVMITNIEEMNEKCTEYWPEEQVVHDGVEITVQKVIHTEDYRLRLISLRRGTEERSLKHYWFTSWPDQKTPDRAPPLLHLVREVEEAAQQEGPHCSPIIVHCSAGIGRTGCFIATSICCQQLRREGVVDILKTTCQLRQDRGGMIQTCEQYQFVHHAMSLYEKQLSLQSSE
Protocol: The samples were shaken at room temperature for 1 h to inhibit STEP. Each sample was then transferred to a separate Thermo Scientific Slide-A-Lyzer dialysis cassette with a 10,000 MW cutoff and 0.5–3.0 mL sample volume and was dialyzed into 1 L of 1× assay buffer over 24 h in a 4°C cold room. Aliquots of approximately 100 µL were removed from the dialysis cassette at 0, 4, and 24 h time points. Protein concentration was determined by reading absorbance at 280 nm compared to a standard curve for STEP. The samples were diluted to 100 nM in 100 µL of 1× assay buffer. […] The initial rate data collected were used to determine enzyme activity standardized to the DMSO control zero time point.

3xTg-AD and WT mice = test: Morris water maze (MWM), reference memory version; type: in vivo, mouse
Protocol: The reference memory version of the MWM task was performed as described previously. A crossover design was not used in the MWM task, as the mice were randomly assigned to each treatment condition and can be exposed to the task only once. Briefly, animals were trained to swim in a 1.4 m diameter pool to find a submerged platform (14 cm in diameter) located 1 cm below the surface of water (24°C), rendered opaque by the addition of nontoxic white paint. Animals were pseudo-randomly started from a different position at each trial and used distal visual-spatial cues to find the hidden escape platform that remained in the center of the same quadrant throughout all training days. Training measures included escape latency to reach the platform, swim speed, and thigmotaxis. […] At 24 h after the acquisition phase, the platform was removed and a probe trial of 90 s was given to evaluate the number of entries in a circular zone (three times the platform diameter) positioned around the previous platform location (target zone) and in the opposite quadrants. To assess visual deficits and motivation to escape from water, the probe test was followed by a cued task (60 s; three trials per animal) during which the platform was visible. The visible platform was moved to different locations between each trial. After each trial, animals were immediately placed under a warming lamp to dry to prevent hypothermia. […] Behavioral data from training, probe, and cued trials were acquired and analyzed using the ANY-maze automated tracking system (Stoelting, IL, USA).

Aβ and phospho-tau = Aβ and phospho-tau levels in 12-mo-old 3xTg-AD mice; type: in vivo, mouse; conditions: 10 mg/kg i.p.
Protocol: Time spent with either a novel or familiar object was recorded using ANY-maze software. Square-root transformation was used to meet the assumptions of normality and equal variance of the raw data. All histograms are presented as means ± s.e.m. Student's t test was applied to determine significance differences (*p<0.05; WT-Veh, n = 10; WT TC, n = 11; AD-Veh, n = 22; AD-TC, n = 19). […] CTFs and Aβ are indicated by arrowheads. Representative 7PA2-CM (Aβ-enriched conditioned medium) immunoprecipitation is shown on right panel. Data are presented as means ± s.e.m. […] Data are presented as means ± s.e.m. […] (TIF) Click here for additional data file.

mice = tested on: mice; design: method as in earlier work; conditions: cited from earlier work
PTP-SL = PTP-SL (Homo sapiens, UniProt Q15256); test: biochemical
Chain of PTP-SL (Q15256 22-657): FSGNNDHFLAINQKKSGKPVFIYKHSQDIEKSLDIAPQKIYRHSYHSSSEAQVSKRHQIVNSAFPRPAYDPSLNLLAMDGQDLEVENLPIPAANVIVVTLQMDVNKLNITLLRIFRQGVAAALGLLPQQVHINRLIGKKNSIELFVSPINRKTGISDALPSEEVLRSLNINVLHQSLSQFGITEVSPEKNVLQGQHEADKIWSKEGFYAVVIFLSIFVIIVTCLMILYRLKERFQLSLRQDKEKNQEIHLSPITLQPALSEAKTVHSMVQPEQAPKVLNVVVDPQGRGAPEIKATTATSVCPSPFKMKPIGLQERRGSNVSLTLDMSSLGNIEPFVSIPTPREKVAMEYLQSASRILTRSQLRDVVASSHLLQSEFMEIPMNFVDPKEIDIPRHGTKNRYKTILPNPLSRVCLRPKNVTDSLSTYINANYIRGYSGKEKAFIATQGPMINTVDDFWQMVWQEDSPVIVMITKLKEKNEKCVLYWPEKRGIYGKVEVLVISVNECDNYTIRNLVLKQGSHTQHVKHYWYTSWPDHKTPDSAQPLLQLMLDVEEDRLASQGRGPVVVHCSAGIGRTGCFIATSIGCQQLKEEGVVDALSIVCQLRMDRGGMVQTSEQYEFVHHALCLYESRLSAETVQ
Protocol: Full-length HePTP and PTP-SL proteins were purchased from Abnova (Taipei, Taiwan). All proteins were dialyzed in 1,000-fold volume of buffer, which was repeated three times. […] After 10 min preincubation of enzyme and inhibitor at 27°C, 500 µM of pNPP was added and incubated for 30 min. Absorbance was taken at 405 nm using a Biotek plate reader.

Cl.Nc1cc(C(F)(F)F)cc2c1SSSSS2 [TC-2153, 8-(trifluoromethyl)-1,2,3,4,5-benzopentathiepin-6-amine hydrochloride]
IC50 (HePTP): 363.5 ± 1.2 nM | pERK1/2 and pPyk2 in hippocampus and frontal cortex of STEP KO mice ([1]; STEP KO mice): did not increase the Tyr phosphorylation of these substrates over baseline levels | pERK1/2 and pPyk2 in frontal cortex and hippocampus ([1]; WT mice, 10 mg/kg i.p., 3 h): significant increase in pERK1/2 and pPyk2 | pERK1/2 and pPyk2 in cerebellum, spleen, kidney, pancreas (tissues without STEP) ([1]; mice, 10 mg/kg i.p., 3 h): not in the cerebellum or in all tissues tested outside the brain | STEP activity after dialysis (reversibility) (STEP): STEP remained inhibited | MWM probe trial, target zone (3xTg-AD and WT mice; 3xTg-AD mice, 24 h after last acquisition day): spent as much time as WT mice in the target zone | MWM acquisition phase escape latency (3xTg-AD and WT mice; 3xTg-AD mice, daily injection 3 h prior to training, days 5 and 6): reversed memory deficits | MWM cued trial escape latency, AD mice (3xTg-AD and WT mice; AD-TC, visible platform, AD-Veh 15.3±3.0): 16.0 ± 2.3 s | MWM cued trial escape latency, WT mice (3xTg-AD and WT mice; WT-TC, visible platform, WT-Veh 15.1±1.7): 15.6 ± 1.7 s | Aβ or phospho-tau levels (Aβ and phospho-tau): no significant changes in Aβ or phospho-tau levels | Aβ or phospho-tau levels (Aβ and phospho-tau; row): did not affect the Aβ and tau brain pathology | Behavioural effects taken as evidence of crossing the blood brain barrier (mice): anxiolytic and anticonvulsant effects | IC50 (PTP-SL): 220.6 ± 1.3 nM

— PMC4122355, “Inhibitor of the Tyrosine Phosphatase STEP Reverses Cognitive Deficits in a Mouse Model of Alzheimer's Disease” (PLoS Biology, 2014)
